Results from US6586416B2, “Methods of treatment using an epithelial sodium channel blocker and an inhibitor of the mineralocorticoid receptor” (priority 2001, dated 2003).

Legend:
Assay type in all cases: cell-based
[1] = tested on: amiloride-sensitive sodium conductance (ENaC); assay: Whole-cell patch clamp of rabbit collecting duct principal cells; conditions: for mean current measured at EK+ (−80 mV): statistical analysis, aldosterone, then vasopressin, then amiloride
Protocol: (§1) Collecting ducts were manually dissected from sagittal slices obtained from 50 gram Sprague Dawley rats and 0.5 Kg New Zealand White rabbits. The dissected collecting ducts were suspended in RPMI 1640 culture medium supplemented with 1.5 mg/ml collagenase A (Boehringer Mannheim, Mannhein, Germany). The collecting ducts were enzymatically digested for 1.5 hours to isolate individual cells. The digested cells were washed in serum-free RPMI and placed in a perfusion chamber mounted on the stage of an inverted microscope. The whole-cell patch clamp configuration was established and initial current measurements were made in un-supplemented RPMI. […] To block the cytosolic mineralocorticoid receptor, some cells were suspended in RPMI supplemented with spironolactone for 1 hour prior to whole-cell patch clamping.
Studies were conducted using both whole cell patch clamp and single channel patch clamp techniques. Whole-cell clamped rabbit principal cells were exposed to 100 nM aldosterone. […] No cells failed both tests. […] ENa+ was approximately +60 mV with the ionic gradients present. The activated current was carried exclusively by sodium. In a separate set of experiments rabbit principal cells were re-suspended in RPMI supplemented with 1 μM spironolactone for 1 hour prior to use for whole-cell patch clamp. This concentration is sufficient to inhibit completely the mineralocorticoid receptor.

[2] = target: T1, ENaC (Homo sapiens, UniProt P37088+P51168+P51170); assay: Single channel patch clamp (outside-out patches) of human lymphocytes
T1 construct: Human and canine lymphocytes were isolated from peripheral blood samples by differential centrifugation over ficoll paque; endogenous in cells; host or cells: human peripheral blood lymphocytes
T1 sequence (P37088 1-669): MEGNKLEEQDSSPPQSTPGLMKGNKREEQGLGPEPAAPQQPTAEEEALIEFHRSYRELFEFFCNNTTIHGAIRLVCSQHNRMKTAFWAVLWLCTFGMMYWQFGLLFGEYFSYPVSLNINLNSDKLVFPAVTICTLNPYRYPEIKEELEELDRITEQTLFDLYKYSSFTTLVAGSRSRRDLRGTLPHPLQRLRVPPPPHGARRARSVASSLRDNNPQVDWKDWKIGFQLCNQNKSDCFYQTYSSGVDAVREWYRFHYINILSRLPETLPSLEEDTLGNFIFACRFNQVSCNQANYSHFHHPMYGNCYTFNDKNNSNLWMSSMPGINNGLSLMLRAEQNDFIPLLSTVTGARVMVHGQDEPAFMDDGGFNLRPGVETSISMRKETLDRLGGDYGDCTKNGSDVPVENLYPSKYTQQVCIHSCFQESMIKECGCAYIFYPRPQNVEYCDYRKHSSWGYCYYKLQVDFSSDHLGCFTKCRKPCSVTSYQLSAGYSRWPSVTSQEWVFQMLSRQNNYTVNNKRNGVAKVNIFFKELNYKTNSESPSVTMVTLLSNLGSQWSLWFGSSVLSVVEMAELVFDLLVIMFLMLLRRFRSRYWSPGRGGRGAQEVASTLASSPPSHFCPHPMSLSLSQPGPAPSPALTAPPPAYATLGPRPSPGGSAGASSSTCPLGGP
T1 sequence (P51168 1-640): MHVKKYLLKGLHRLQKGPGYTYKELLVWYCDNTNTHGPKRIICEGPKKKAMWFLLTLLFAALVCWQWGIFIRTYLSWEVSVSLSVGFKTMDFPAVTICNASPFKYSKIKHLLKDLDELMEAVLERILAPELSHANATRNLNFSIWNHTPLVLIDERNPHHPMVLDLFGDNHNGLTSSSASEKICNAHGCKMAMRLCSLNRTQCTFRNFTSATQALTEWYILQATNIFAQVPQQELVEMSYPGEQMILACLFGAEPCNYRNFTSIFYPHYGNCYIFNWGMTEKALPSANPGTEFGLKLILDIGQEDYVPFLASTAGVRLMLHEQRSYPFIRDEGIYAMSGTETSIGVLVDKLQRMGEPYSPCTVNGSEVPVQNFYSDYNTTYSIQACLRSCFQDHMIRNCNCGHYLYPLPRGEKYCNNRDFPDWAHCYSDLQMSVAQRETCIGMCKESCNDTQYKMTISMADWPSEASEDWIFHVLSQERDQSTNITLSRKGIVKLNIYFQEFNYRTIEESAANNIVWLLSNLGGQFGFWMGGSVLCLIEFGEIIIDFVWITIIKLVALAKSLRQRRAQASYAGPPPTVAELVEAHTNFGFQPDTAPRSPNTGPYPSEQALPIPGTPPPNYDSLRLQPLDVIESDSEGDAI
T1 sequence (P51170 1-649): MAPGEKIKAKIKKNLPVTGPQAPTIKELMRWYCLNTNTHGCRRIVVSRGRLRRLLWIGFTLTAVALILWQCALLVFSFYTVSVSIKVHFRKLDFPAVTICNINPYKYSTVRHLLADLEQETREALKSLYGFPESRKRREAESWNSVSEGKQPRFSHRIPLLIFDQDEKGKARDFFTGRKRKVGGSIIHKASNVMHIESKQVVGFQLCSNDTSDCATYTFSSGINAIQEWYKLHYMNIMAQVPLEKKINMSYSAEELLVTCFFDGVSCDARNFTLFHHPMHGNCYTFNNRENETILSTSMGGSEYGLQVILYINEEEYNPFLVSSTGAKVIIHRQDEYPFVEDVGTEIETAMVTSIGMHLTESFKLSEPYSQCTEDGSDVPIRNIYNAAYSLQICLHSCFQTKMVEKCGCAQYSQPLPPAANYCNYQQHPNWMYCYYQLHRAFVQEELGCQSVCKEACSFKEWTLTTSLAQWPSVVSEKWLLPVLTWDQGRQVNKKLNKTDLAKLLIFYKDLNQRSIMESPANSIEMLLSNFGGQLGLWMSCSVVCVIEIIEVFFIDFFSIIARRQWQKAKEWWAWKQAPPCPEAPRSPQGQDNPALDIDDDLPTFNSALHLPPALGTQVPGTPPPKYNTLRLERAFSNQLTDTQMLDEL
Protocol: Human and canine lymphocytes were isolated from peripheral blood samples by differential centrifugation over ficoll paque (Pharmacia Biotech, Uppsala, Sweden). The cells were washed and re-suspended in serum-free RPMI. Subsequently, suspended cells were placed in the perfusion chamber. Whole-cell patch clamp and testing of aldosterone were carried out using identical techniques and protocols as described for principal cells. Rabbit, rat and mouse lymphocytes were obtained by mincing sections of spleen and manually freeing the cells by agitation. The cell suspensions were then centrifuged over ficoll paque and treated identically to the lymphocytes obtained from peripheral blood. All procedures were carried out under the guidelines for animal use and with institutional board approval for human use.
The “ragged” morphology of the whole-cell currents in principal cells and lymphocytes has generated some concern about the identity of the channels that are activated by aldosterone. To address this concern, single channel characteristics of the sodium conductors expressed by human lymphocytes were studied.
To test the amiloride sensitivity of the single channels, outside-out patches were formed because amiloride only interacts with the outside surface of the channels. A “rundown” phenomena typical of ENaC in the inside-out patch experiments was noted.

[3] = target: T2, amiloride-sensitive sodium conductance (ENaC) (Rattus norvegicus, UniProt P37089+P37090+P37091); assay: Whole-cell patch clamp of rat collecting duct principal cells; conditions: for mean current measured at EK+ (−80 mV): statistical analysis, then vasopressin, then amiloride
T2 construct: Collecting ducts were manually dissected from sagittal slices obtained from 50 gram Sprague Dawley rats and 0.5 Kg New Zealand White rabbits; from tissue; host or cells: principal cells isolated from kidney collecting ducts of Sprague Dawley rats
T2 sequence (P37089 1-698): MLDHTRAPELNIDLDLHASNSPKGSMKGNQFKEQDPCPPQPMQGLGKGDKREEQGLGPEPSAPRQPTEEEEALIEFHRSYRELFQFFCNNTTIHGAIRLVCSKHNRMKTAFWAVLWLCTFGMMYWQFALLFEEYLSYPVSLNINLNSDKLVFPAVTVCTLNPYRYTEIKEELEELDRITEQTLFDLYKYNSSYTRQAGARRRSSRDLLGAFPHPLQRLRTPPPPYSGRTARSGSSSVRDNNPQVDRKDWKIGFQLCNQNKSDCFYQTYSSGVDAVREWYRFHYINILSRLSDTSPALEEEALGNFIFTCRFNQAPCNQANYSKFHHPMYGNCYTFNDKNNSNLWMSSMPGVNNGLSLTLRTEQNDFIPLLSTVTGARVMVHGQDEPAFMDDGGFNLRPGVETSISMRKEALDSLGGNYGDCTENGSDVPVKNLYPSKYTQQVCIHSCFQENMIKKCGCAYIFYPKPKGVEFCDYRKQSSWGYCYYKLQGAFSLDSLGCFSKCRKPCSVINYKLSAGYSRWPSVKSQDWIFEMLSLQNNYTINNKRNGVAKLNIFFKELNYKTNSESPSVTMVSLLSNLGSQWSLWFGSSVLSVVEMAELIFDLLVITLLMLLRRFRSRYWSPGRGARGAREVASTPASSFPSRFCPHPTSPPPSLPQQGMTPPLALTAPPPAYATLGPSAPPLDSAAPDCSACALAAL
T2 sequence (P37090 1-638): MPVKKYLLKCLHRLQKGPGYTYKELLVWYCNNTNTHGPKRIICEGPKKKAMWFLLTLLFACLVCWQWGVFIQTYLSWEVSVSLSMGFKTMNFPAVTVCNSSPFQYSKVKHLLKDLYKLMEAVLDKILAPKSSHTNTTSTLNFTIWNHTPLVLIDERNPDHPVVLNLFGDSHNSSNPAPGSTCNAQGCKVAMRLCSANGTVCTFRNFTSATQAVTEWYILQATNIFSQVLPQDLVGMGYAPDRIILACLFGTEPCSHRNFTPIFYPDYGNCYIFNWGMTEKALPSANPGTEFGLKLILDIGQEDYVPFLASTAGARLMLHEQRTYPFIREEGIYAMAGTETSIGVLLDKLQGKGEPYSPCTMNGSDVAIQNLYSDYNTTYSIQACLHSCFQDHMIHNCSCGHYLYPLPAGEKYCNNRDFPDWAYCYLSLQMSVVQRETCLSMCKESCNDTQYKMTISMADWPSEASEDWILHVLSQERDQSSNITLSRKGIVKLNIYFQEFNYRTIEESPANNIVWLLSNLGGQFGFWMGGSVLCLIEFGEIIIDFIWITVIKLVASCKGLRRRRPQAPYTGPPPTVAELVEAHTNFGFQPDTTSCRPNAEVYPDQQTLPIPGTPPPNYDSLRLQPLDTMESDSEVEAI
T2 sequence (P37091 1-650): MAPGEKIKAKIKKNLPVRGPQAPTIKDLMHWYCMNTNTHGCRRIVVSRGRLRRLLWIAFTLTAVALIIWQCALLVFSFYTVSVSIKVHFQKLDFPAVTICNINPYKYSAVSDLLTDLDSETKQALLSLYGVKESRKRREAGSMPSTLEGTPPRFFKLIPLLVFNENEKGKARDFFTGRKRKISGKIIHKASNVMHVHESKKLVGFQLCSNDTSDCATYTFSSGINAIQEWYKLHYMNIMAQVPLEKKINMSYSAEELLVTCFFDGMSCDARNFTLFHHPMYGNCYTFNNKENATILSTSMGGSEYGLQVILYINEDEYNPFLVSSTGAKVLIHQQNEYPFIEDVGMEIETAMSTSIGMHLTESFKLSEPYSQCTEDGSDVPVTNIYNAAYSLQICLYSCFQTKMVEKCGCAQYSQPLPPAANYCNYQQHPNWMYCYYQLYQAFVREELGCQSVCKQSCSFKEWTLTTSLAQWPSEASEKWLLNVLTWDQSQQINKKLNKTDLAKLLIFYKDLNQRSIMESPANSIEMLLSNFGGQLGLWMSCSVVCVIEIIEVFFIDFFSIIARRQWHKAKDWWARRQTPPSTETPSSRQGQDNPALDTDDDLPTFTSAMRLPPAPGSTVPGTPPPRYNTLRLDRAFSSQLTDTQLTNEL
Protocol: as §1
The same protocol was carried out on rabbit principal cells.

SMILES: N=C(N)NC(=O)c1nc(Cl)c(N)nc1N [amiloride]
- inhibition of aldosterone-activated currents ([1]; rabbit principal cells, 2 μM amiloride in the continued presence of aldosterone): inhibited completely
- mean current measured at EK+ (−80 mV) ([1]; rabbit principal cells): returned the conductance to the basal level
- single channel activity ([2]; amiloride 2 μM): completely abolished
- inhibition of single channels ([2]; amiloride concentration close to IC50 ([…] nM)): Incomplete inhibitory action
- single channel activity ([2]; cells treated with 100 nM aldosterone, amiloride 2 μM final concentration in bath): virtually abolished
- mean current measured at EK+ (−80 mV) ([3]; aldosterone): restored the current to the basal level

SMILES: CC(=O)S[C@@H]1CC2=CC(=O)CC[C@]2(C)[C@H]2CC[C@@]3(C)[C@@H](CC[C@@]34CCC(=O)O4)[C@H]12 [spironolactone]
- effect on inward currents ([1]; rabbit principal cells, 1 μM spironolactone for 1 hour prior to whole-cell patch clamp): no effect on the inward currents

SMILES: C[C@]12CCC(=O)C=C1CC[C@@H]1[C@@H]2[C@@H](O)C[C@]2(C=O)[C@@H](C(=O)CO)CC[C@@H]12 [aldosterone]
- effect on inward currents with mineralocorticoid receptor inhibition ([1]; rabbit principal cells pre-treated with 1 μM spironolactone, 100 nM aldosterone): specifically activated the inward currents
- effect on inward currents at hyperpolarized membrane potential clamp voltages ([1]; rabbit principal cells, 100 nM aldosterone in bath): specific activation of the inward currents
- mean current measured at EK+ (−80 mV) ([1]; rabbit principal cells): significantly increased the current
- time to aldosterone-stimulated ENaC activation ([1]; rabbit principal cells, whole-cell clamp, ATP-supplemented pipette solution): within seconds
- unitary conductance ([2]; cells treated with 100 nM aldosterone): unchanged
- acute effect on principal cells ([3]; aldosterone): no acute affect
- mean current measured at EK+ (−80 mV) ([3]; aldosterone): did not alter the current

SMILES: NC(=O)CC[C@@H]1NC(=O)[C@H](Cc2ccccc2)NC(=O)[C@H](Cc2ccc(O)cc2)NC(=O)[C@@H](N)CSSC[C@@H](C(=O)N2CCC[C@H]2C(=O)N[C@@H](CCCN=C(N)N)C(=O)NCC(N)=O)NC(=O)[C@H](CC(N)=O)NC1=O [vasopressin]
- mean current measured at EK+ (−80 mV) ([1]; rabbit principal cells): had no additional effect
- further activation of inward currents after ENaC activation by aldosterone ([1]; rabbit principal cells, vasopressin after aldosterone): did not activate the inward currents any further
- activation of amiloride sensitive inward currents ([3]; 250 nM vasopressin after aldosterone): acute specific activation of the amiloride sensitive inward currents
- mean current measured at EK+ (−80 mV) ([3]; aldosterone): increased it significantly
